Experimental data: article PMC11461078 (Oxidative Medicine and Cellular Longevity, 2024)
Like-named read-outs stand apart in the source and are kept apart here.

Assays:
CCF-STTG1 cells [1] = test: ROS production (cytochrome C reduction) under oxidative stress; type: cell-based, human; conditions: for reduction of ROS production compared to H2O2 200 μM: H2O2 200 μM pretreatment, 24 hr treatment, green tea 100 μM, saffron 25 μM, citicoline 100 μM, trans-R 1 µM, MIX
Experimental: In a second set of experiments, the CCF-STTG1 cell line was pretreated with 200 μM H2O2 for 30 min to explore the effects of the combination under oxidative stress conditions compared to the single agents by analysing cell viability, ROS, and NO productions. In addition, inflammatory biomarkers (TNFα and IL-2), BDNF production, and intracellular apoptotic and neurodegenerative markers activated were also analysed by ELISA kit. A standard procedure based on cytochrome C reduction on CCF-STTG1 cells quantified superoxide anion release. After treatment, 100 μL of cytochrome C (1 mg/mL, Merck Life Science, Rome, Italy) and 100 μL of superoxide dismutase (0.1 mg/mL, Merck Life Science, Rome, Italy) were added to each sample for 30 min in an incubator. At 550 nm, a spectrophotometer (Infinite 200 […], Männedorf, Switzerland) assessed absorbance in cell culture supernatants. O2 rate was represented as the mean SD (%) of nanomoles per decreased cytochrome C per microgram of protein relative to the control (0 line).

[2] = test system: BBB in vitro model (CCF-STTG1 cocultured with HUVEC on Transwells); conditions: human
pTau = test: Tau (Phospho) [pS199] ELISA under oxidative stress; type: cell-based, human; conditions: H2O2 200 μM pretreatment
Experimental: Tau (Pospho) protein was investigated by Tau (Phospho) [[…]] Human ELISA Kit (Thermo ScientificTM, Waltham, MA, USA) on CCF-STTG1 cell lysates. In summary, 100 μL of each sample was added to the plate, incubated at 37°C for 90 min, removed, and washed three times. Next, add 100 μL of detection solution A to each well and incubate at 37°C for 45 min. Post-incubation, wash wells, add 100 μL detection solution B, and incubate at 37°C for 45 min. After adding 90 μL of substrate solution, the plate was incubated at 37°C for 20 min in the dark. The reaction was stopped with 50 μL of stop solution, and the absorbance was measured at 450 nm using a spectrometer (Infinite 200 […], Männedorf, Switzerland). Results are shown as mean SD (%) relative to the control, and concentration is reported in ng/mL by comparing data to the standard curve (15.6-1,000 pg/mL).

rats = test system: rats; parameters: method as in PMID 29470767; conditions: tramadol toxicity, 30 mg/kg orally for 28 consecutive days; cited from earlier work
BDNF = BDNF quantification ELISA under oxidative stress; type: cell-based, human; conditions: H2O2 200 μM
Experimental: (§1) Human BDNF ELISA Kit (Thermo ScientificTM, Waltham, MA, United States) quantified BDNF in CCF-STTG1 cell supernatants following the manufacturer's instructions. Each well received a biotinylated detection antibody, and the plate was incubated at room temperature for 1 hr. After 45 min of HRP-conjugated streptavidin incubation, TMB substrate solution was added for 30 min, and a stop solution terminated the reaction. To calculate BDNF concentration, absorbance was measured at 450 nm using a spectrometer (Infinite 200 Pro MPlex, Tecan, Männedorf, Switzerland) and compared to the standard curve (0.066–16 ng/mL). The data are presented as mean ± SD (%) compared to the untreated control sample. The cells were also given 10 ng/mL BDNF as a positive control.
as §1, with “Elisa” for “ELISA”, “The data are presented as mean ± SD (%) compared to the untreated control sample. The cells were also given 10 ng/mL BDNF as a positive control.” left out

CCF-STTG1 cells [3] = test: Cell viability (MTT) under oxidative stress (200 µM H2O2 pretreatment); type: cell-based, human; conditions: H2O2 200 μM
Experimental: In a second set of experiments, the CCF-STTG1 cell line was pretreated with 200 µM H2O2 for 30 min to explore the effects of the combination under oxidative stress conditions compared to the single agents by analysing cell viability, ROS, and NO productions. In addition, inflammatory biomarkers (TNFα and IL-2), BDNF production, and intracellular apoptotic and neurodegenerative markers activated were also analysed by ELISA kit.
A 96-well plate was used to measure cell viability of CCF-STTG1 cells after each stimulation using MTT-based In Vitro Toxicology Assay Kit (Merck Life Science, Milan, Italy), as reported in the literature. After stimulating cells, 1% MTT dye was incubated at 37°C in an incubator with 5% CO2 and 95% humidity, and purple formazan crystals were dissolved in MTT solubilisation solution after 2 hr. In addition, during the quantification, the background interference due to the extract was considered by making an empty sample (without cells but with the treatment), which was subtracted. To assess cell viability, absorbance at 570 nm with 690 nm correction was measured using a spectrometer (Infinite 200 Pro MPlex, Tecan, Männedorf, Switzerland) and compared to the control (0 line, which is 100% viable cells) and expressed in percentage.

human = test system: human; parameters: method as in PMID 23403474; conditions: 500 mg per day for 2 weeks; cited from earlier work

Row | Structure (SMILES) | reduction of ROS production compared to H2O2 200 μM (CCF-STTG1 cells [1]) | Permeability values (Papp) ([2]; 4 h) [×10⁻⁶ cm/s] | Permeability values (Papp) ([2]; 12 h) [×10⁻⁶ cm/s] | Permeability values (Papp) ([2]; 24 h) [×10⁻⁶ cm/s] | other results
1 | Oc1ccc(/C=C/c2cc(O)cc(O)c2)cc1 [trans-R, trans-Resveratrol] | about 46% | 0.2 | 0.83 | 0.53 | pTau expression (in words) (pTau): inhibits its expression, similar to the MIX
2 | CC(/C=C/C=C(\C)C(=O)O[C@@H]1O[C@H](CO[C@@H]2O[C@H](CO)[C@@H](O)[C@H](O)[C@H]2O)[C@@H](O)[C@H](O)[C@H]1O)=C\C=C\C=C(C)\C=C\C=C(/C)C(=O)O[C@@H]1O[C@H](CO[C@@H]2O[C@H](CO)[C@@H](O)[C@H](O)[C@H]2O)[C@@H](O)[C@H](O)[C@H]1O [crocin] | – | – | – | – | learning and memory (rats): improved learning and memory
3 | OO [H2O2] | – | – | – | – | reduction of BDNF production vs control (BDNF): ~ 30%; decrease in cell viability compared to the control (CCF-STTG1 cells [3]): about 22%; increase in ROS production compared to the control (CCF-STTG1 cells [1]; H2O2 200 μM): about 42%
4 | C[N+](C)(C)CCOP(=O)(O)OP(=O)([O-])OC[C@H]1O[C@@H](n2ccc(N)nc2=O)[C@H](O)[C@@H]1O [citicoline, cytidine diphosphate (CDP)-choline] | about 37% | 0.2 | 0.58 | 0.44 | serum malondialdehyde (MDA) levels (human): significantly decreased; vigilance, visual working memory, oxidative stress markers compared to placebo (human): improve human vigilance, visual working memory, and oxidative stress markers
